The test system of assay [1] is human IgG. The settings on record: cited from earlier work.
Assay [2] has as its target T1, rabbit IgG (Oryctolagus cuniculus, UniProt P01870).
T1 construct: purchased Sigma-Aldrich
The settings on record: Gong et al.; cited from earlier work.

Assay [3] deals with IgG-Fc-region. The following applies: DeLano et al. 2000; cited from earlier work.
Assay [4] relates to human IgG. The assay can be described thus: SPR interaction assay (Biacore), scaffolds immobilised, human IgG as analyte. In kind it is binding. The settings on record: hIgG at 25° C. Here is the method: Surface plasmon resonance (SPR) The affinities and binding kinetics of the generated TtSlyD-Fc-III-4C mutants were evaluated by SPR using a Biacore biosensensor system. The Biacore system enables a real-time monitoring of intermolecular interactions between the ligand, immobilised on a sensor chip gold-surface, and the analyte which is free in solution and passes over the ligand (Healthcare, G., Biacore™ Assay Handbook 29-0194-00 Edition AA). Interaction of the binding partners leads to SPR signals (responses), measured in resonance units (RU) and illustrated as plot against time (sensorgram).
Regarding the procedure, in brief, the analyte is injected on the chip, interacting with the immobilised ligand. The change in concentration of molecules at the chip surface leads to a change in the refractive index, monitored as response unit (RU). Dissociation of analyte is triggered by continues buffer flow, followed by complete removal (chip regeneration) and starting of a new analysis cycle. […]
Interaction kinetics are examined by monitoring different analyte concentrations over time. Kinetic parameters, such as association (ka) and dissociation rate constants (kd) are evaluated in relation to a mathematical model. […]
Background: In SPR one partner is held on a chip, and binding of the other changes the refractive index at the surface.

These results are taken from patent publication US20250197457A1, “CHIMERIC IGG-FC-BINDING LIGAND POLYPEPTIDE AND USES THEREOF FOR IGG AFFINITY PURIFICATION” (Roche Diagnostics Operations, Inc., priority 2021, published 2025).

T1 sequence (P01870 whole entry): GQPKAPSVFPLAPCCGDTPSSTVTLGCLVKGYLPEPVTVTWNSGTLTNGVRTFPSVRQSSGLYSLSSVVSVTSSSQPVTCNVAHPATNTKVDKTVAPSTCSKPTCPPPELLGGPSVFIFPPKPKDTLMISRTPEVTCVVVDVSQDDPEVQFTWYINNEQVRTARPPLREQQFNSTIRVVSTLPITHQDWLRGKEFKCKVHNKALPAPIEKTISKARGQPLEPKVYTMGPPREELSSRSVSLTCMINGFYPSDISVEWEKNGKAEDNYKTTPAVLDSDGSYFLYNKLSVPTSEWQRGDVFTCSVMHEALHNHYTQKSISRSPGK

Broadly, the Kd is the concentration at which binding is half-saturated. For CDCAWHLGELVWCTC [Fc-III-4C], the “higher binding affinity to human IgG compared to the original Fc-III” value in assay [1] (SPR) is given as 30 fold. The dissociation constant Kd in assay [1] (human IgG, Gong et al. 2016) was 2.45 nM; in assay [2], 5.67 nM.

For the molecule DCAWHLGELVWCT [Fc-III], in assay [3], the “binding affinity relative to Protein A” value is “only about two fold weaker”.

B1: TtSlyD-Fc-III-2C Hit No. 4: SlyD chimera whose IF domain is replaced by Fc-III-XC peptide EDCAWHLGELVWCTE, SEQ ID NO: 16 (protein)
chain: MKVGQDKVVTIRYTLQVEGEVLDQGELSYLHGHRLIPGLEEALEGREEGEAFQAHVPAEKAYEDCAWHLGELVWCTEGKDLDFQVEVVKVREATPEELLHGHA
modifications: left off: small tags and cut ends
Consider B1, for which, in assay [4], the “binding affinity KA” value was 1.09e+08 M⁻¹ and the t/2 diss stood at 36 min.
